Columns and labels:
Test in all cases: relative viability (nuclei count vs DMSO), 5 days (fraction); higher = more cells survive
ABC-1 = test system: ABC-1
In short: (§1)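 Relative viability was taken as the ratio of nuclei in treated wells to nuclei in vehicle wells. Lung cancer cell lines in 1536-well plates received compounds by pin tool one day after seeding, either one drug alone or a fixed anchor-drug dose plus five library-drug doses (not always all listed) in √10 steps. Nuclei were counted on 4× images after 5 days of treatment, and values are medians of duplicate plates.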

EKVX = test system: EKVX
In short: as §1

EPLC-272H = test system: EPLC-272H
In short: as §1

NCI-H1975 = test system: NCI-H1975
In short: as §1

NCI-H1651 = test system: NCI-H1651
In short: as §1

NCI-H522 = test system: NCI-H522
In short: as §1

HCC-827 = test system: HCC-827
In short: as §1

H3255 = test system: H3255
In short: as §1

NCI-H520 = test system: NCI-H520
In short: as §1

NCI-H2087 = test system: NCI-H2087
In short: as §1

NCI-H358 = test system: NCI-H358
In short: as §1

COR-L 105 = test system: COR-L 105
In short: as §1

NCI-H661 = test system: NCI-H661
In short: as §1

NCI-H1792 = test system: NCI-H1792
In short: as §1

NCI-H838 = test system: NCI-H838
In short: as §1

NCI-H647 = test system: NCI-H647
In short: as §1

HCC-44 = test system: HCC-44
In short: as §1

LCLC-103H = test system: LCLC-103H
In short: as §1

201T = test system: 201T
In short: as §1

UMC-11 = test system: UMC-11
In short: as §1

NCI-H1437 = test system: NCI-H1437
In short: as §1

NCI-H727 = test system: NCI-H727
In short: as §1

COR-L23 = test system: COR-L23
In short: as §1

NCI-H1650 = test system: NCI-H1650
In short: as §1

HCC-15 = test system: HCC-15
In short: as §1

With `CCCCCCCCCCCC1=C(O)C(=O)C=C(O)C1=O` [Embelin] + Nc1ncn([C@H]2C[C@H](O)[C@@H](CO)O2)c(=O)n1 [Decitabine] (partner 2 µM) the relative viability (ABC-1; first compound 0.08 µM) was 1.02, the relative viability (ABC-1; first compound 0.8 µM) was 1.11 and the relative viability (ABC-1; first compound 2.53 µM) was 1.04. It also gave a relative viability (ABC-1; first compound 8 µM) of 1.12, a relative viability (EKVX; first compound 0.08 µM) of 0.41 and a relative viability (EKVX; first compound 0.8 µM) of 0.4. The relative viability (EKVX; first compound 2.53 µM) was 0.314, the relative viability (EKVX; first compound 8 µM) was 0.313 and the relative viability (EPLC-272H; first compound 0.08 µM) was 0.363. For the same molecule, the relative viability (EPLC-272H; first compound 0.8 µM) was 0.401, the relative viability (EPLC-272H; first compound 2.53 µM) was 0.355 and the relative viability (EPLC-272H; first compound 8 µM) was 0.367. It also gave a relative viability (NCI-H1975; first compound 0.08 µM) of 0.377, a relative viability (NCI-H1975; first compound 0.8 µM) of 0.432 and a relative viability (NCI-H1975; first compound 2.53 µM) of 0.37. The relative viability (NCI-H1975; first compound 8 µM) was 0.586, the relative viability (NCI-H1651; first compound 0.08 µM) was 0.634 and the relative viability (NCI-H1651; first compound 0.8 µM) was 0.67. The relative viability (NCI-H1651; first compound 2.53 µM) was 0.867, the relative viability (NCI-H1651; first compound 8 µM) was 0.659 and the relative viability (NCI-H522; first compound 0.08 µM) was 0.647. For the same molecule, the relative viability (NCI-H522; first compound 0.8 µM) was 0.617, the relative viability (NCI-H522; first compound 2.53 µM) was 0.578 and the relative viability (NCI-H522; first compound 8 µM) was 0.704. The relative viability (HCC-827; first compound 0.08 µM) was 0.336, the relative viability (HCC-827; first compound 0.8 µM) was 0.333 and the relative viability (HCC-827; first compound 2.53 µM) was 0.38. The relative viability (HCC-827; first compound 8 µM) was 0.355, the relative viability (H3255; first compound 0.08 µM) was 0.502 and the relative viability (H3255; first compound 0.8 µM) was 0.783. The relative viability (H3255; first compound 2.53 µM) was 0.617, the relative viability (H3255; first compound 8 µM) was 0.656 and the relative viability (NCI-H520; first compound 0.08 µM) was 0.478. The relative viability (NCI-H520; first compound 0.8 µM) was 0.558, the relative viability (NCI-H520; first compound 2.53 µM) was 0.552 and the relative viability (NCI-H520; first compound 8 µM) was 0.441. It also gave a relative viability (NCI-H2087; first compound 0.08 µM) of 0.278, a relative viability (NCI-H2087; first compound 0.8 µM) of 0.295 and a relative viability (NCI-H2087; first compound 2.53 µM) of 0.361. The relative viability (NCI-H2087; first compound 8 µM) was 0.225, the relative viability (NCI-H358; first compound 0.08 µM) was 0.2 and the relative viability (NCI-H358; first compound 0.8 µM) was 0.233. The relative viability (NCI-H358; first compound 2.53 µM) was 0.23, the relative viability (NCI-H358; first compound 8 µM) was 0.221 and the relative viability (COR-L 105; first compound 0.08 µM) was 0.676. The relative viability (COR-L 105; first compound 0.8 µM) was 0.715, the relative viability (COR-L 105; first compound 2.53 µM) was 0.657 and the relative viability (COR-L 105; first compound 8 µM) was 0.751. For the same molecule, the relative viability (NCI-H661; first compound 0.08 µM) was 0.565, the relative viability (NCI-H661; first compound 0.8 µM) was 0.614 and the relative viability (NCI-H661; first compound 2.53 µM) was 0.649. The relative viability (NCI-H661; first compound 8 µM) was 0.541, the relative viability (NCI-H1792; first compound 0.08 µM) was 0.603 and the relative viability (NCI-H1792; first compound 0.8 µM) was 0.595. For the same molecule, the relative viability (NCI-H1792; first compound 2.53 µM) was 0.615, the relative viability (NCI-H1792; first compound 8 µM) was 0.519 and the relative viability (NCI-H838; first compound 0.08 µM) was 0.478. For the same molecule, the relative viability (NCI-H838; first compound 0.8 µM) was 0.485, the relative viability (NCI-H838; first compound 2.53 µM) was 0.502 and the relative viability (NCI-H838; first compound 8 µM) was 0.321. The relative viability (NCI-H647; first compound 0.08 µM) was 0.454, the relative viability (NCI-H647; first compound 0.8 µM) was 0.379 and the relative viability (NCI-H647; first compound 2.53 µM) was 0.488. It also gave a relative viability (NCI-H647; first compound 8 µM) of 0.277, a relative viability (HCC-44; first compound 0.08 µM) of 0.981 and a relative viability (HCC-44; first compound 0.8 µM) of 0.953. For the same molecule, the relative viability (HCC-44; first compound 2.53 µM) was 0.986, the relative viability (HCC-44; first compound 8 µM) was 0.944 and the relative viability (LCLC-103H; first compound 0.08 µM) was 0.754. For the same molecule, the relative viability (LCLC-103H; first compound 0.8 µM) was 0.755, the relative viability (LCLC-103H; first compound 2.53 µM) was 0.737 and the relative viability (LCLC-103H; first compound 8 µM) was 0.718. The relative viability (201T; first compound 0.08 µM) was 0.82, the relative viability (201T; first compound 0.8 µM) was 0.884 and the relative viability (201T; first compound 2.53 µM) was 0.853. It also gave a relative viability (201T; first compound 8 µM) of 0.831, a relative viability (UMC-11; first compound 0.08 µM) of 0.616 and a relative viability (UMC-11; first compound 0.8 µM) of 0.608. For the same molecule, the relative viability (UMC-11; first compound 2.53 µM) was 0.631, the relative viability (UMC-11; first compound 8 µM) was 0.553 and the relative viability (NCI-H1437; first compound 0.08 µM) was 0.541. It also gave a relative viability (NCI-H1437; first compound 0.8 µM) of 0.623, a relative viability (NCI-H1437; first compound 2.53 µM) of 0.568 and a relative viability (NCI-H1437; first compound 8 µM) of 0.41. It also gave a relative viability (NCI-H727; first compound 0.08 µM) of 1.02, a relative viability (NCI-H727; first compound 0.8 µM) of 0.96 and a relative viability (NCI-H727; first compound 2.53 µM) of 1.14. The relative viability (NCI-H727; first compound 8 µM) was 0.916, the relative viability (COR-L23; first compound 0.08 µM) was 0.454 and the relative viability (COR-L23; first compound 0.8 µM) was 0.479. It also gave a relative viability (COR-L23; first compound 2.53 µM) of 0.433, a relative viability (COR-L23; first compound 8 µM) of 0.393 and a relative viability (NCI-H1650; first compound 0.08 µM) of 0.354. For the same molecule, the relative viability (NCI-H1650; first compound 0.8 µM) was 0.362, the relative viability (NCI-H1650; first compound 2.53 µM) was 0.457 and the relative viability (NCI-H1650; first compound 8 µM) was 0.384. The relative viability (HCC-15; first compound 0.08 µM) was 0.619, the relative viability (HCC-15; first compound 0.8 µM) was 0.694 and the relative viability (HCC-15; first compound 2.53 µM) was 0.697. For the same molecule, the relative viability (HCC-15; first compound 8 µM) was 0.617.

From the supplement of paper PMC10307832
